Measurements: patent publication US20080269313A1, “Prolyl Oligopeptidase Inhibitors Ameliorating Recovery From Brain Trauma” (ORION CORPORATION, priority 2003, published 2008)

How the values were obtained:
[1] = test system: experimental models of senile dementia; conditions: Toide et al. 1997; cited from earlier work
[2] = test system: male rats with the focal forebrain ischemia; assay: limb-placing test after focal forebrain ischemia (middle cerebral artery occlusion 90 min); type: in vivo, rat; conditions: for difference in limb-placing test between JTP-4819 and control groups: ischemic rats vs vehicle control
Procedure: The effects of JTP-4819 on the recovery in the use of limbs assessed by the limb placing task in male rats with the focal forebrain ischemia.
The experiment was carried out on male Spraque-Dawley rats (about 200 g), bred in B&K, Sweden. The rats were allowed to acclimatized for one week before the start of teaching of behavioural testing and subsequent operation (Table 1). During acclimatization period, the rats were housed in solid bottom Macrolon type III cages with stainless steel mesh lids (at maximum five rats in each cage). The rats had free access to standard certified pelleted food (RM1 Maintenance Expanded SQC; Special Diet Services, Essex, UK) and water. After operation, the rats were housed singly in a Macrolon cage. Some food pellets were put into a cage in order to enable to their feeding. On the second post-operative day and thereafter, the rats were housed (maximum 10 rats in one cage) in the enriched environment (Enriched rat cage system, 03-RS-R, Scanbur A/S, Lellinge, Denmark) where the floor area of one cage was 4250 cm^2. […] Tap water and pelleted food were freely available.
Anesthesia was initiated with 4-5% halothane (30% oxygen, 65% nitrous oxide) and maintained throughout the operation with 0.5-1.5% halothane delivered via a nose cone. Body temperature was maintained at 37.0±0.5° C. using a thermoregulatory heating unit with homeothermic blanket (HB 101/2 RS, Letica Scientific Instruments). Heparin (40 IU, i.v.) was given just before the operation to prevent possible complications caused by blood coagulation. The right common carotid artery was exposed through a midline ventral cervical incision, and carefully separated from the adjacent sympathetic nerves under a stereomicroscope. The common carotid artery and internal carotid artery were then clamped with microvascular clips. The external carotid artery was ligated distally with a nylon suture and the artery was cut for induction of suture. A heparinized nylon suture (Ø0.28 mm, rounded tip) was introduced into the stump of the external carotid artery, the internal carotid artery clip was removed, and the suture was advanced into the internal carotid artery until it passed beyond the origin of the middle cerebral artery. After occlusion for 90 min, the suture was removed to allow reperfusion in the middle cerebral artery territory. The stump of the external carotid artery was electrocoagulated and the common carotid artery clip was removed. The cervical incision was closed with silk sutures after the application of 2% lidocain gel (Xylocaln® 2%, Astra Finland). In sham-operated rats, the right common carotid artery was exposed and the external carotid artery was electrocoagulated without introducing the filament into the internal carotid artery. Animals were given 0.9% NaCl (i.p.) during the first-post-operative days (days 0 and 1). They were housed singly in a Macrolon cage.
JTP-4819 was dissolved in sterile saline. The drug was injected 1 ml/kg intraperitoneally (i.p.). […] On the testing day 2, the drug was injected after the rats were tested in a limb placing test and assigned to groups. On days 3-14, the rats were treated even if they were not tested in a limb placing test Table 1). In those days (6, 8, 10, 12, 13), the rats were injected in the afternoon, about 24 hours after the preceding injection. […]
On the second day after operation, behavioral deficits of rats were assessed by using a limb-placing test (De Ryck et al., 1989). […]

O=C(CO)[C@@H]1CCCN1C(=O)[C@@H]1CCCN1C(=O)NCc1ccccc1 [JTP-4819]
cognition effects [1]: cognition improving effects
difference in limb-placing test between JTP-4819 and control groups ([2]; 1 μmol/kg i.p. daily, from day 5 to day 17 after ischemia): significant difference (p<0.05)
difference in limb-placing test between JTP-4819 and control groups ([2]; 9 μmol/kg i.p. daily, on day 3 and 9): significant difference (p<0.05)
recovery in limb-placing score as compared to vehicle treated rats (FIG. 1) ([2]; 0.9 or 9.0 μmol/kg intraperitoneally, especially the lower dose, day 5-17): augmented recovery
recovery in the use of limbs ([2]; daily systemic administration started after unilateral focal forebrain ischemia, rats): enhanced the recovery in the use of limbs
limb-placing test effect after the discontinuation of drug administration ([2]; lower dose of JTP-4819 (1 μmol/kg i.p.), after treatment days 2-14): amelioration effect also was seen
